# Assays:
# [1] = molecular target: cGMP-dependent protein kinase 1 (Homo sapiens, UniProt Q13976); test: Inhibition of recombinant full length human PKG1alpha using RRRLSFAEPG as substrate incubated for 40 mins in presence of [gamma-33P]ATP and 10 uM ATP by radiometric scintillation counting analysis
# [2] = molecular target: Tyrosine-protein kinase ABL1 (Homo sapiens, UniProt P00519); test: Inhibition of human recombinant ABL1 (27 to end residues) using EAIYAAPFAKKK as substrate incubated for 40 mins in presence of [gamma-33P]ATP by radiometric scintillation counting analysis
# [3] = molecular target: Tyrosine-protein kinase BTK (Homo sapiens, UniProt Q06187); test: Inhibition of recombinant full length human BTK using KVEKIGEGTYGVV substrate incubated for 40 mins in presence of [gamma-33ATP] by radiometric scintillation counting analysis
# [4] = molecular target: CDK12/Cyclin K (Homo sapiens, UniProt Q9NYV4); test: Inhibition of recombinant full length human CDK12/cyclinK using RSRSRSRSRSRSR as substrate incubated for 120 mins in presence of [gamma-33ATP] by radiometric scintillation counting analysis; format: protein-complex assay
# [5] = molecular target: Cyclin-dependent kinase 13/Cyclin-K (Homo sapiens, UniProt Q14004); test: Inhibition of recombinant full length human CDK13/cyclinK using RSRSRSRSRSRSR as substrate incubated for 120 mins in presence of [gamma-33ATP] by radiometric scintillation counting analysis; format: protein-complex assay
# Cyclin-dependent kinase 13/Cyclin-K, sequence (Q14004 whole entry): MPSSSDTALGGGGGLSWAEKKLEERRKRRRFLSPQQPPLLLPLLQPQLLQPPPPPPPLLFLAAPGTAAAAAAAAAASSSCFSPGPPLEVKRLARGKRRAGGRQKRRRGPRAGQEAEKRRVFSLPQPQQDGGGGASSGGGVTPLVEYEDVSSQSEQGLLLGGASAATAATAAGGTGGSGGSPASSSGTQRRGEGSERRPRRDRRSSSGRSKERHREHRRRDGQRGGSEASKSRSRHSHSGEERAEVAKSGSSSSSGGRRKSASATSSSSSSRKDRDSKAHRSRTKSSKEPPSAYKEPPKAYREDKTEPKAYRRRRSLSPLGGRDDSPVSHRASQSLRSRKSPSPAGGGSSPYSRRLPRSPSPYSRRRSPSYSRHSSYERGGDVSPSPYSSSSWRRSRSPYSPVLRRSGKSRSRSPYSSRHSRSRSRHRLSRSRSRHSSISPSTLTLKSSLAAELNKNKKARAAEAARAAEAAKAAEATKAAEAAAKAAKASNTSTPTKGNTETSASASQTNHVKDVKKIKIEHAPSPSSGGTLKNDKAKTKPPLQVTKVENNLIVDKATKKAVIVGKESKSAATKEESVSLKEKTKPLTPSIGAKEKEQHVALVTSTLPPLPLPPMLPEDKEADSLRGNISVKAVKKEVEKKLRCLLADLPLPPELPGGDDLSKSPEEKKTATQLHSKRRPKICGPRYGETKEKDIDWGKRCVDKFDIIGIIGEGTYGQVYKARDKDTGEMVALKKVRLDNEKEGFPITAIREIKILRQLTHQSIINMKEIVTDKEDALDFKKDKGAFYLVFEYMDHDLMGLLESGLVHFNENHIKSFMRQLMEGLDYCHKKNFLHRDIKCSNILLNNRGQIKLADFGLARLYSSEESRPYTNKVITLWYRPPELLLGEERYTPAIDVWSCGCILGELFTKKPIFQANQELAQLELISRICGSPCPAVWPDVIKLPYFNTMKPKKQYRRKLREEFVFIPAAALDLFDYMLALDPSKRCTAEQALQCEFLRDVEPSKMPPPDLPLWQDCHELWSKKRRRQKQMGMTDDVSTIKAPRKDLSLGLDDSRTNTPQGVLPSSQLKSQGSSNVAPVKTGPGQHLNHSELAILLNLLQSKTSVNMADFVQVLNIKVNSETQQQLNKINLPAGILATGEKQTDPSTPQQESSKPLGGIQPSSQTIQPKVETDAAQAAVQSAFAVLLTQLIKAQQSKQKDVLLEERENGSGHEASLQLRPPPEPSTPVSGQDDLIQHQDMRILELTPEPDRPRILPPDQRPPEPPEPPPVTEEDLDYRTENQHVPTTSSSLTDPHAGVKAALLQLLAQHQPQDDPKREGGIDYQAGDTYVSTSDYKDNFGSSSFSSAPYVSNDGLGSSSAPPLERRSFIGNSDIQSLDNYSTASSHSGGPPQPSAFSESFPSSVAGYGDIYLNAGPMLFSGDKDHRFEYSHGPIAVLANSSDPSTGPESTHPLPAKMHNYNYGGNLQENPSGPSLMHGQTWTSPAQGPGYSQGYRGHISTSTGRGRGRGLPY
# Cyclin-dependent kinase 13/Cyclin-K, sequence (O75909 whole entry, further chain): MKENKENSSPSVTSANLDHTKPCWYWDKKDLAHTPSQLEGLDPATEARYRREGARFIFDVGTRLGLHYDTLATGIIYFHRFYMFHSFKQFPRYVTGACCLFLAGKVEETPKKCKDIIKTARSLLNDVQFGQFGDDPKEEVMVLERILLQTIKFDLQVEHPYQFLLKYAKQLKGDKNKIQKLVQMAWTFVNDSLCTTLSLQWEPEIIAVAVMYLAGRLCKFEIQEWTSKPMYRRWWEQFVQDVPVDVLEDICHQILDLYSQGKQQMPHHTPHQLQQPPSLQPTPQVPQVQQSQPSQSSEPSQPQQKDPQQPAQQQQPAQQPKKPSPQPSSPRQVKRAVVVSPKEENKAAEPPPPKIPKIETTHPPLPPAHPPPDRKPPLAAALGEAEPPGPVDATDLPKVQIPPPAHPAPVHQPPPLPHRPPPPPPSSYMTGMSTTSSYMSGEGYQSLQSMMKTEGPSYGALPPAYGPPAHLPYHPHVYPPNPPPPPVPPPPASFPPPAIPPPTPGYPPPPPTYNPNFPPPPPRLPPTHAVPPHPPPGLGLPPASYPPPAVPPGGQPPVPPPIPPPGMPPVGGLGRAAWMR
# [6] = molecular target: CDK18/Cyclin Y (Homo sapiens, UniProt Q07002+Q8ND76, T166M); test: Inhibition of recombinant full length human cyclinY/CDK18 T166M mutant using YRRAAVPPSPSLS as substrate measured after 40 mins in presence of [gamma33P]ATP by radiometric scintillation counting analysis; format: protein-complex assay
# [7] = molecular target: Mast/stem cell growth factor receptor Kit (Homo sapiens, UniProt P10721, V654A); test: Inhibition of recombinant human C-Kit V654A mutant (544 to end residues) using poly(Glu, Tyr) 4:1 as substrate incubated 40 mins in presence of [gamma-33ATP] by radiometric scintillation counting analysis
# [8] = molecular target: Proto-oncogene tyrosine-protein kinase Src (Homo sapiens, UniProt P12931); test: Inhibition of recombinant human C-Src using […] as substrate incubated 40 mins in presence of [gamma-33ATP] by radiometric scintillation counting analysis
# [9] = molecular target: Myosin light chain kinase 2, skeletal/cardiac muscle (Homo sapiens, UniProt Q9H1R3); test: Inhibition of recombinant full length human MYLK2 using KKLNRTLSFAEPG as substrate measured after 40 mins in presence of [gamma33P]ATP by radiometric scintillation counting analysis
# [10] = molecular target: 3-phosphoinositide-dependent protein kinase 1 (Homo sapiens, UniProt O15530); test: Inhibition of recombinant human PDK1 (52 to end residues) using KTFCGTPEYLAPE as substrate incubated for 40 mins in presence of [gamma33P]ATP by radiometric scintillation counting analysis
# [11] = molecular target: Serine/threonine-protein kinase PAK 1 (Homo sapiens, UniProt Q13153); test: Inhibition of recombinant human PAK1 (150 to end residues) using RRRLSFAEPG as substrate measured after 40 mins in presence of [gamma33P]ATP by radiometric scintillation counting analysis
# Serine/threonine-protein kinase PAK 1, sequence (Q13153 whole entry): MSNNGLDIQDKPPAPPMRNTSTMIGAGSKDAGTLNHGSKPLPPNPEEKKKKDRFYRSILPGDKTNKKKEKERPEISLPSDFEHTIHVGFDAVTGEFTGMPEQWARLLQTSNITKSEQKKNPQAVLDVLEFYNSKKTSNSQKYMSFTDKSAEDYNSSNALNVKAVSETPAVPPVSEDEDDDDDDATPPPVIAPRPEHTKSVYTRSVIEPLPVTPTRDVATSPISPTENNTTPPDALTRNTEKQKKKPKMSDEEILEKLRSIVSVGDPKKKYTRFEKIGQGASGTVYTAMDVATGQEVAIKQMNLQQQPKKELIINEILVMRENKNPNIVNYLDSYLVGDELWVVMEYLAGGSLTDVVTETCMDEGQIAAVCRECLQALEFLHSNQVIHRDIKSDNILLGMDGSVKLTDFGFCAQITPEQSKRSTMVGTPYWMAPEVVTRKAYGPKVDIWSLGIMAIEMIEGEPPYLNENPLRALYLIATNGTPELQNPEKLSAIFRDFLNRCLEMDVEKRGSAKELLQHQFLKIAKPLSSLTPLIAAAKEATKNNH
# [12] = molecular target: Ephrin type-B receptor 1 (Homo sapiens, UniProt P54762); test: Inhibition of recombinant human EphB1 (564 to end residues) using […] as substrate after 40 mins in presence of [gamma-33ATP] by radiometric scintillation counting analysis
# [13] = molecular target: Fibroblast growth factor receptor 2 (Homo sapiens, UniProt P21802, N549H); test: Inhibition of recombinant human FGFR2 N549H mutant (456 to 765 residues) using GGEEEEYFELVKK as substrate after 40 mins in presence of [gamma-33ATP] by radiometric scintillation counting analysis
# [14] = molecular target: Macrophage colony-stimulating factor 1 receptor (Homo sapiens, UniProt P07333); test: Inhibition of recombinant human FMS (538 to end residues) using KKKSPGEYVNIEF as substrate after 40 mins in presence of [gamma-33ATP] by radiometric scintillation counting analysis
# [15] = molecular target: Tyrosine-protein kinase Fyn (Homo sapiens, UniProt P06241); test: Inhibition of recombinant full length human Fyn using […] as substrate after 40 mins in presence of [gamma-33ATP] by radiometric scintillation counting analysis
# [16] = molecular target: Insulin receptor (Homo sapiens, UniProt P06213); test: Inhibition of human recombinant IR (1005 to 1310 residues) using KKSRGDYMTMQIG as substrate after 40 mins by [gamma-33ATP] by radiometric scintillation counting analysis
# [17] = molecular target: Dual specificity mitogen-activated protein kinase kinase 2 (Homo sapiens, UniProt P36507); test: Inhibition of recombinant full length human MEK2 using MBP as substrate incubated for 40 mins in presence of [gamma-33ATP by radiometric scintillation counting analysis
# Dual specificity mitogen-activated protein kinase kinase 2, sequence (P36507 whole entry, the tested form may be a part): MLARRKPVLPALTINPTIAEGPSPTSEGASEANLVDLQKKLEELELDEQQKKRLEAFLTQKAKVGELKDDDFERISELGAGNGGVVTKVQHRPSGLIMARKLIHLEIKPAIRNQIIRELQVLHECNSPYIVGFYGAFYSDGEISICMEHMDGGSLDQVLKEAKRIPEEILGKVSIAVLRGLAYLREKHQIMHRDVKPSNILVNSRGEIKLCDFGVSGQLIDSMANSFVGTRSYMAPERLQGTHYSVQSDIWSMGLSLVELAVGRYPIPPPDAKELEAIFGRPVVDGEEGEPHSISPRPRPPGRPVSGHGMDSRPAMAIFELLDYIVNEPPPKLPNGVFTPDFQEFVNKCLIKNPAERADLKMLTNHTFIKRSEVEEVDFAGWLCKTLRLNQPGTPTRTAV
# [18] = molecular target: Serine/threonine-protein kinase PLK3 (Homo sapiens, UniProt Q9H4B4); test: Inhibition of recombinant human Plk3 (19 to 301 residues) using casein as substrate incubated for 40 mins in presence of [gamma33P]ATP by radiometric scintillation counting analysis
# Serine/threonine-protein kinase PLK3, sequence (Q9H4B4 whole entry, the tested form may be a part): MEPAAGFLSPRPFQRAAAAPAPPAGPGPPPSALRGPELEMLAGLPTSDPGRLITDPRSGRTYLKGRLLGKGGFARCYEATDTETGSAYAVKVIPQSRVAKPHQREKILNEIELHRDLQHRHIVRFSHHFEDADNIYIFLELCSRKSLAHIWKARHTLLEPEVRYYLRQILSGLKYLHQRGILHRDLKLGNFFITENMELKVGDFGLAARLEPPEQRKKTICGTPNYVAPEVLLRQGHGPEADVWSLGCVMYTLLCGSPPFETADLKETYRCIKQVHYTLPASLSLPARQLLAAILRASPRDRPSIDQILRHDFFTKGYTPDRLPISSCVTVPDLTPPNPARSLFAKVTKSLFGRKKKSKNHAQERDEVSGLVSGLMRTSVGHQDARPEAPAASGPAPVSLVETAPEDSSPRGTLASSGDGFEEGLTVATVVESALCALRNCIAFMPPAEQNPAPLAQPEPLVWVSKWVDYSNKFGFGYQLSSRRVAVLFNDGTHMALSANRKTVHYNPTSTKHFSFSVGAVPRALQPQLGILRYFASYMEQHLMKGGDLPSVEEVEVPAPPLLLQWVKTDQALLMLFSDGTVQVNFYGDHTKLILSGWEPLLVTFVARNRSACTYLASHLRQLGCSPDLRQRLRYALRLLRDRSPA
# [19] = molecular target: Tyrosine-protein kinase receptor TYRO3 (Homo sapiens, UniProt Q06418); test: Inhibition of recombinant human RSE (451 to end residues) using KVEKIGEGTYGVV as substrate incubated for 40 mins in presence of [gamma33P]ATP by radiometric scintillation counting analysis
# [20] = molecular target: Mitogen-activated protein kinase 12 (Homo sapiens, UniProt P53778); test: Inhibition of recombinant human full length SAPK3 using myelin basic protein as substrate incubated for 40 mins in presence of [gamma33P]ATP by radiometric scintillation counting analysis
# [21] = molecular target: Serine/threonine-protein kinase SIK1 (Homo sapiens, UniProt P57059); test: Inhibition of recombinant human SIK (1 to 281 residues) using AMARAASAAALARas substrate incubated for 40 mins in presence of [gamma33P]ATP by radiometric scintillation counting analysis
# [22] = molecular target: Serine/threonine-protein kinase SIK2 (Homo sapiens, UniProt Q9H0K1); test: Inhibition of recombinant human SIK2 (1 to 276 residues) using KKKVSRSGLYRSP as substrate incubated for 40 mins in presence of [gamma33P]ATP by radiometric scintillation counting analysis
# [23] = molecular target: Transcription initiation factor TFIID subunit 1-like (Homo sapiens, UniProt Q8IZX4); test: Inhibition of recombinant human TAF1L (1428 to end residues) using RRRFRPASPLRGP as substrate incubated for 120 mins in presence of [gamma33P]ATP by radiometric scintillation counting analysis
# [24] = molecular target: Tribbles homolog 2 (Homo sapiens, UniProt Q92519); test: Inhibition of recombinant full-length human TRB2 using RRRFRPASPLRGP as substrate incubated for 120 mins in presence of [gamma33P]ATP by radiometric scintillation counting analysis
# Tribbles homolog 2, sequence (Q92519 whole entry): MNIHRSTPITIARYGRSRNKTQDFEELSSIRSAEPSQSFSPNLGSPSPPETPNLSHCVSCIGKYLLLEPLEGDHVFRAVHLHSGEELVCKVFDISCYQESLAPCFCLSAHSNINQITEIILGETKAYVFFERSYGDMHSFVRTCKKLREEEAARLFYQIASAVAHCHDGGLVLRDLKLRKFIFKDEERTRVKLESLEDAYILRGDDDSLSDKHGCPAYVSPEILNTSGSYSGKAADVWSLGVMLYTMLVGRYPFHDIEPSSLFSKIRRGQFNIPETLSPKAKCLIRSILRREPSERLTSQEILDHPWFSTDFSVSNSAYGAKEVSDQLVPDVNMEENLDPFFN
# [25] = molecular target: Non-receptor tyrosine-protein kinase TYK2 (Homo sapiens, UniProt P29597); test: Inhibition of recombinant human TYK2 (875 to end residues) using GGMEDIYFEFMGG as substrate incubated for 40 mins in presence of [gamma33P]ATP by radiometric scintillation counting analysis
# [26] = Inhibition of human PIP5K1
# cGMP-dependent protein kinase 1, sequence (Q13976 whole entry): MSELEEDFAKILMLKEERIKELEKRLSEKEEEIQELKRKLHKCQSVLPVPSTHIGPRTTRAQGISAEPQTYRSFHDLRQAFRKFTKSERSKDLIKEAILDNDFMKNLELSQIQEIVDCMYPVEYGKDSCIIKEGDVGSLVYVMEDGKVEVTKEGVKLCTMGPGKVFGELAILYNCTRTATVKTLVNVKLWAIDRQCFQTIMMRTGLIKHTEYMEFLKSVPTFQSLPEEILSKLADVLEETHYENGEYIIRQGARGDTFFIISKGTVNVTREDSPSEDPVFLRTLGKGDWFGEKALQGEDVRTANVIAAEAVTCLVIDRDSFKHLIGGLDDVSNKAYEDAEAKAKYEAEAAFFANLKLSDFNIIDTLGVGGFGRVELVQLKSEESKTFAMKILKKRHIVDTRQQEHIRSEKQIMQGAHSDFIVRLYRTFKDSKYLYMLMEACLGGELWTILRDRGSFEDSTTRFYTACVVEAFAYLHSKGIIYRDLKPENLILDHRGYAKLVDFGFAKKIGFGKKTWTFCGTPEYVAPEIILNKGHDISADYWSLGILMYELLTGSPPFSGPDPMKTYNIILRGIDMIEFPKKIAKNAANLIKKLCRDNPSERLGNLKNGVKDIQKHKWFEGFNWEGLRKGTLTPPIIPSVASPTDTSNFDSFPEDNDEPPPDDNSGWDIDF
structure (smiles),measurement,setting,value
CN(C)c1ccc(C(=O)Nc2cccc(NC(=O)COc3ccc4c(=O)ccoc4c3)c2)cc1,IC50,[1],0.517 µM
same,IC50,[2],> 10 µM
same,IC50,[3],> 10 µM
same,IC50,[4],> 10 µM
same,IC50,[5],> 10 µM
same,IC50,[6],> 10 µM
same,IC50,[7],> 10 µM
same,IC50,[8],> 10 µM
same,IC50,[9],> 10 µM
same,IC50,[10],> 10 µM
same,IC50,[11],> 10 µM
same,IC50,[12],> 10 µM
same,IC50,[13],> 10 µM
same,IC50,[14],> 10 µM
same,IC50,[15],> 10 µM
same,IC50,[16],> 10 µM
same,IC50,[17],> 10 µM
same,IC50,[18],> 10 µM
same,IC50,[19],> 10 µM
same,IC50,[20],> 10 µM
same,IC50,[21],> 10 µM
same,IC50,[22],> 10 µM
same,IC50,[23],> 10 µM
same,IC50,[24],> 10 µM
same,IC50,[25],> 10 µM
same,IC50,[26],> 10 µM
